Data published in BindingDB's records for doi:10.7270/Q22V2DH9 (Nmmlsc, 2007).

Molecular target: T1, N-formyl peptide receptor 2 (Homo sapiens, UniProt P25090)
T1 sequence (P25090 whole entry): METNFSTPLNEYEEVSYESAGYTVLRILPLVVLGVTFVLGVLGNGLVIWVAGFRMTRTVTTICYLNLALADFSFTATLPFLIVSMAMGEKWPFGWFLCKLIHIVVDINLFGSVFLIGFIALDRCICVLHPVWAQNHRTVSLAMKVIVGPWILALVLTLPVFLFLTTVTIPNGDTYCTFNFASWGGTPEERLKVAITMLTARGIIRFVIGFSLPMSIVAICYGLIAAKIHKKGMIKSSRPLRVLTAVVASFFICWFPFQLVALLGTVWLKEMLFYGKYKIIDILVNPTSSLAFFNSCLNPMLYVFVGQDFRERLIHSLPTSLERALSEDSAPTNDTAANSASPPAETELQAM
Assay: human FPR2 ligand displacement potency – cell-based, flow cytometry, Ki from IC50, selectivity assay for FPR1 ligand SAR project, dose response (AID 723)

Q: `CCCCCCN1C(=O)C(=O)C(C(=O)c2ccccc2)C1c1ccc(O)c(OC)c1` (stereo unspecified) [(4Z)-1-hexyl-5-(3-methoxy-4-oxidanyl-phenyl)-4-[oxidanyl(phenyl)methylidene]pyrrolidine-2,3-dione] was tested. Which IC50 did it give?
A: The IC50 was > 66.7 µM.

Q: How did the IC50 turn out when `COc1ccc(-c2c(C(F)(F)F)oc3cc(OC(=O)c4ccco4)ccc3c2=O)cc1OC` [2-furancarboxylic acid [3-(3,4-dimethoxyphenyl)-4-oxo-2-(trifluoromethyl)-1-benzopyran-7-yl] ester] was run?
A: Its IC50 is > 66.7 µM.

Q: With `COc1ccc(C2C(C(=O)c3cccs3)C(=O)C(=O)N2CCCn2ccnc2)cc1` (stereo unspecified) [1-(3-imidazol-1-ylpropyl)-2-(4-methoxyphenyl)-4-oxidanyl-3-thiophen-2-ylcarbonyl-2H-pyrrol-5-one] as the compound, how does the IC50 read?
A: Its IC50 is > 66.7 µM.

Q: `O=C1NC(c2ccc(Br)cc2)C(C(=O)c2ccc(Cl)cc2)C1=O` (stereo unspecified) [(4E)-5-(4-bromophenyl)-4-[(4-chlorophenyl)-hydroxy-methylene]pyrrolidine-2,3-quinone] was tested. Which IC50 did it give?
A: The IC50 was > 66.7 µM.

Q: For `COc1ccc(C2C(C(=O)c3ccco3)C(=O)C(=O)N2CCCN2CCOCC2)cc1OC` (stereo unspecified) [2-(3,4-dimethoxyphenyl)-3-(furan-2-carbonyl)-4-hydroxy-1-(3-morpholin-4-ylpropyl)-2H-pyrrol-5-one], which IC50 is on record?
A: The IC50 was > 66.7 µM.

Q: How did the IC50 turn out when `O=C1C(=O)N(c2ccc(F)cc2)C(c2ccc(Br)cc2)C1C(=O)c1ccccc1` (stereo unspecified) [(4Z)-5-(4-bromophenyl)-1-(4-fluorophenyl)-4-[hydroxy(phenyl)methylene]pyrrolidine-2,3-quinone] was run?
A: The IC50 was > 66.7 µM.

Q: With `COc1ccc(C2C(C(=O)c3ccc(C)cc3)C(=O)C(=O)N2Cc2cccnc2)c(OC)c1` (stereo unspecified) [(4E)-5-(2,4-dimethoxyphenyl)-4-[(4-methylphenyl)-oxidanyl-methylidene]-1-(pyridin-3-ylmethyl)pyrrolidine-2,3-dione] as the compound, how does the IC50 read?
A: Its IC50 is > 66.7 µM.

Q: With `COc1cccc(-c2ccnc3[nH]n(-c4ccccc4)c(=O)c23)c1` [UNM000003608001] as the compound, how does the IC50 read?
A: Its IC50 is > 66.7 µM.

Q: For `CCc1cc2c(=O)c(-c3nc4ccccc4n3C)c(C)oc2cc1OC(C)=O` [acetic acid [6-ethyl-2-methyl-3-(1-methyl-2-benzimidazolyl)-4-oxo-1-benzopyran-7-yl] ester], which IC50 is on record?
A: The IC50 was > 66.7 µM.

Q: Which IC50 does the source give for `O=C1C(=O)N(CCCN2CCOCC2)C(c2cccnc2)C1C(=O)c1cc2ccccc2o1` (stereo unspecified) [3-(1-benzofuran-2-carbonyl)-4-hydroxy-1-(3-morpholin-4-ylpropyl)-2-pyridin-3-yl-2H-pyrrol-5-one] here?
A: The IC50 was > 66.7 µM.

Q: With `O=C1C(=O)N(CCc2ccccc2)C(c2ccc(Cl)cc2)C1C(=O)c1cccs1` (stereo unspecified) [2-(4-chlorophenyl)-4-hydroxy-1-(2-phenylethyl)-3-(thiophene-2-carbonyl)-2H-pyrrol-5-one] as the compound, how does the IC50 read?
A: The IC50 was > 66.7 µM.

Q: For `COc1ccc(OC)c(C2C(C(=O)c3ccc(C)cc3)C(=O)C(=O)N2CCC(=O)O)c1` (stereo unspecified) [3-[(3E)-2-(2,5-dimethoxyphenyl)-3-[(4-methylphenyl)-oxidanyl-methylidene]-4,5-bis(oxidanylidene)pyrrolidin-1-yl]propanoic acid], which IC50 is on record?
A: The IC50 was > 66.7 µM.

Q: `COc1cccc(/C=C2/C(=O)NN(c3ccc(C)cc3)C2=O)c1` [(4Z)-4-[(3-methoxyphenyl)methylidene]-1-(4-methylphenyl)pyrazolidine-3,5-dione] was tested. Which IC50 did it give?
A: The IC50 was > 66.7 µM.

Q: `Cc1ccc(N2C(=O)C(=O)C(C(=O)c3ccccc3)C2c2cccc(F)c2)cc1Br` (stereo unspecified) [(4Z)-1-(3-bromanyl-4-methyl-phenyl)-5-(3-fluorophenyl)-4-[oxidanyl(phenyl)methylidene]pyrrolidine-2,3-dione] was tested. Which IC50 did it give?
A: The IC50 was > 66.7 µM.

Q: With `CC(C)c1ccc(C2C(C(=O)c3ccccc3)C(=O)C(=O)N2Cc2cccnc2)cc1` (stereo unspecified) [(4E)-4-[hydroxy(phenyl)methylene]-5-p-cumenyl-1-(3-pyridylmethyl)pyrrolidine-2,3-quinone] as the compound, how does the IC50 read?
A: The IC50 was > 66.7 µM.

Q: Which IC50 does the source give for `COc1ccc(C(=O)C2C(=O)C(=O)N(CCc3c[nH]c4ccccc34)C2c2ccc(C(C)C)cc2)cc1` (stereo unspecified) here?
A: The IC50 was > 66.7 µM.

Q: For `COc1cc(C2C(C(=O)c3cc4ccccc4o3)C(=O)C(=O)N2CCN(C)C)ccc1O` (stereo unspecified) [3-(1-benzofuran-2-carbonyl)-1-[2-(dimethylamino)ethyl]-4-hydroxy-2-(4-hydroxy-3-methoxyphenyl)-2H-pyrrol-5-one], which IC50 is on record?
A: The IC50 was > 66.7 µM.

Q: With `COCCCN1C(=O)C(=O)C(C(=O)c2ccccc2)C1c1ccc(C(C)C)cc1` (stereo unspecified) [(4E)-1-(3-methoxypropyl)-4-[oxidanyl(phenyl)methylidene]-5-(4-propan-2-ylphenyl)pyrrolidine-2,3-dione] as the compound, how does the IC50 read?
A: Its IC50 is > 66.7 µM.

Q: With `COc1ccc(OC)c(C2C(C(=O)c3ccccc3)C(=O)C(=O)N2c2cccnc2)c1` (stereo unspecified) [(4E)-5-(2,5-dimethoxyphenyl)-4-[hydroxy(phenyl)methylene]-1-(3-pyridyl)pyrrolidine-2,3-quinone] as the compound, how does the IC50 read?
A: The IC50 was > 66.7 µM.

Q: With `Cc1ccc(C(=O)C2C(=O)C(=O)N(Cc3cccnc3)C2c2ccc(Br)cc2)cc1` (stereo unspecified) [(4E)-5-(4-bromophenyl)-4-[(4-methylphenyl)-oxidanyl-methylidene]-1-(pyridin-3-ylmethyl)pyrrolidine-2,3-dione] as the compound, how does the IC50 read?
A: The IC50 was > 66.7 µM.

Q: With `COc1ccc(-c2c(C)[nH]n3c(=O)c4c(nc23)CCCC4)cc1` as the compound, how does the IC50 read?
A: Its IC50 is > 66.7 µM.

Q: How did the IC50 turn out when `COc1ccc(C2C(C(=O)c3ccccc3)C(=O)C(=O)N2CCCn2ccnc2)c(OC)c1` (stereo unspecified) [(4E)-5-(2,4-dimethoxyphenyl)-1-(3-imidazol-1-ylpropyl)-4-[oxidanyl(phenyl)methylidene]pyrrolidine-2,3-dione] was run?
A: Its IC50 is > 66.7 µM.

Q: `COc1ccc(C2C(C(=O)c3ccco3)C(=O)C(=O)N2CCN2CCOCC2)c(OC)c1` (stereo unspecified) [5-(2,4-dimethoxyphenyl)-4-(furan-2-carbonyl)-3-hydroxy-1-(2-morpholinoethyl)-1H-pyrrol-2(5H)-one] was tested. Which IC50 did it give?
A: Its IC50 is > 66.7 µM.

Q: How did the IC50 turn out when `COCCN1C(=O)C(=O)C(C(=O)c2ccccc2)C1c1ccc(C(C)C)cc1` (stereo unspecified) [(4E)-1-(2-methoxyethyl)-4-[oxidanyl(phenyl)methylidene]-5-(4-propan-2-ylphenyl)pyrrolidine-2,3-dione] was run?
A: The IC50 was > 66.7 µM.

Q: With `COc1ccc(-c2c(C(F)(F)F)oc3c(CN4CCOCC4)c(O)ccc3c2=O)cc1OC` [3-(3,4-dimethoxyphenyl)-7-hydroxy-8-(4-morpholinylmethyl)-2-(trifluoromethyl)-1-benzopyran-4-one] as the compound, how does the IC50 read?
A: The IC50 was > 66.7 µM.

Q: For `COc1ccc(-c2c(C(F)(F)F)oc3cc(OC(=O)c4cccnc4)ccc3c2=O)cc1OC` [3-pyridinecarboxylic acid [3-(3,4-dimethoxyphenyl)-4-oxo-2-(trifluoromethyl)-1-benzopyran-7-yl] ester], which IC50 is on record?
A: Its IC50 is > 66.7 µM.

Q: For `COc1ccccc1-c1c(C(F)(F)F)oc2cc(OC(=O)c3ccco3)ccc2c1=O`, which IC50 is on record?
A: Its IC50 is > 66.7 µM.

Q: With `O=C(Oc1ccc2c(=O)c(Oc3ccccc3Br)c(C(F)(F)F)oc2c1)c1cccs1` [2-thiophenecarboxylic acid [3-(2-bromophenoxy)-4-oxo-2-(trifluoromethyl)-1-benzopyran-7-yl] ester] as the compound, how does the IC50 read?
A: The IC50 was > 66.7 µM.

Q: Which IC50 does the source give for `Cc1sc2c(c1C)c(=O)n(Cc1ccccc1)c(=O)n2Cc1ccccc1F` [1-[(2-fluorophenyl)methyl]-5,6-dimethyl-3-(phenylmethyl)thieno[2,3-d]pyrimidine-2,4-dione] here?
A: Its IC50 is > 66.7 µM.

Q: `COCCCN1C(=O)C(=O)C(C(=O)c2ccccc2)C1c1ccc(O)c(OC)c1` (stereo unspecified) [(4E)-5-(3-methoxy-4-oxidanyl-phenyl)-1-(3-methoxypropyl)-4-[oxidanyl(phenyl)methylidene]pyrrolidine-2,3-dione] was tested. Which IC50 did it give?
A: The IC50 was > 66.7 µM.

Q: With `Cc1cccc(C)c1NC(=O)C(NC(=O)Cc1cccs1)c1ccccc1` (stereo unspecified) [N-(2,6-dimethylphenyl)-2-[(1-oxo-2-thiophen-2-ylethyl)amino]-2-phenylacetamide] as the compound, how does the IC50 read?
A: The IC50 was > 66.7 µM.
